# Entries after “also recorded” stand apart in the source; their conditions may differ.
# Assays:
# CCI rats [1] = assay: Beam walking test in CCI rats; format: in vivo, rat; details: for efficacy on reversing beam walking impairments: summary statement, dose not stated
# Description: (§1) The CCI of sciatic nerve is performed as previously described by Bennett and Xie (1988). Animals are anaesthetized with a 2% isofluorane/O2 mixture maintained during surgery via a nose cone and the common sciatic nerve is exposed at the middle of the right thigh by blunt dissection through biceps femoris. Proximal to the sciatic trifurcation, about 7 mm of nerve is freed of adhering tissue and 4 ligatures (4-0 silk) are tied loosely around it with about 1 mm spacing. Ligatures are tied such that the circulation through the superficial epineural vasculature is retarded but not arrested. The incision is then closed in layers and the wound treated with topical antibiotics. In the sham-operated group an identical dissection is performed on the ipsilateral paw except the sciatic nerve is not ligated.
# The Beam walking apparatus consists of a 1.5 m long beam with a 2.5×2.5 cm square cross section, elevated 75 cm above the floor. The test is performed in dim light conditions (18 lux). A light source (520 lux) is placed at the start-end of the beam while a dark box at the other side (Goldstein & Davis, 1990, J Neurosci Methods; 31:101-107). Rats are trained over a period of 2 days to cross the beam. On the day of the test an additional training section is performed before the proper test trial was performed. […] Rats that cross the beam without using the ipsilateral paw are given a maximal number of foot slips.
# Starting from 3 weeks post surgery, CCI rats are selected based on their performances. Only those showing a number of foot slips of 2 or above are selected and used for the pharmacological validation of the test. A group of naïve CD rats are treated with vehicle and used as positive controls. […]
# CCI rats [2] = assay: Open field test in CCI rats; format: in vivo, rat; details: for reversal of pain-related anxiety-like behaviour of CCI rats: summary statement, dose not stated
# Description: as §1
# (§2) The spontaneous locomotor activity of rats in an open field is monitored for 30 minutes in a 70×70 cm dark arena (Prut ans Beizung, 2003, Eur J Pharmacol. 463:3-33). Each animal was placed in the centre of the arena and a video camera recorded movement of the animal. Four rats are recorded simultaneously in four different cages. Data are collected and analysed by Ethovision 3.0 software (Noldus IT, Netherdland) and the exploratory behaviour is expressed as number of entries in the central area of the arena (23×23 cm).
# To measure the anxiety-like behaviour in CCI rats the open field test is carried out in normal light conditions (100 Lux).
# For a pharmacological validation of the model, CCI rats with a poor exploratory activity (entries≦6) are pre selected in the open field and a week later treated with diazepam (1 and 3 mg/kg, i.p.), tramadol (30 mpk, p.o.) or gabapentin (30-100 mg/kg, p.o.). Naïve CD vehicle-treated rats are used as positive control.
# CCI rats [3] = assay: Rota rod test in CCI rats; format: in vivo, rat; details: analgesic doses; selected rats with mean performance <80 seconds; data not shown
# Description: as §1
# The rota rod test consists of 4 rotatable drums divided by flanges with a motor-driven drum which is capable of acceleration (Ugo Basile, Comerio, VA, Italy). For a given trial, a rat is placed on the rotating rod and the rotation speed is accelerated from 4 to 16 revolutions per minute (rpm) in 2 minutes. The time of maximal performance is set at 120 seconds (Voikar V et al, 2001, Physiol Behav., 2001; 72:271-81). […]
# fibromyalgia patients = details: randomised controlled clinical trials (Mease 2003); cited from earlier work
# CCI rats [4] = assay: Object recognition test in CCI rats; format: in vivo, rat; details: tramadol 100 mg/kg po, 3.5 hours post familiarization, tested 30 minutes later
# Description: as §1
# The Object Recognition test was performed as described by Ennaceur and Delacour (1988). The apparatus consisted of a black circular arena 55 cm in diameter with 50 cm black walls. […]
# Each animal was trained prior to testing; this involved handling and habituation of the rat to the arena for 5 minutes per session, twice a day for three consecutive days. […] The distance moved in the arena and the time spent exploring each object during familiarization and sample phases were recorded manually and automatically, respectively by the videotracking system (Noldus Ethovision 3.0, Netherland). […]
# [5] = system: patients with diabetic neuropathy and post herpetic neuralgia; details: randomised controlled clinical trials (Backonja 1998; Rowbotham 1998); cited from earlier work
# CD naïve rat = assay: Open field test in naïve rats (anxiogenic validation); format: in vivo
# Description: as §2
# To measure the anxiety-like behaviour in CCI rats the open field test is carried out in normal light conditions (100 Lux). […] To confirm that the environmental conditions we set up, could let us measure an anxiety-like behaviour, the activity of the anxiogenic compound mCPP was tested in CD naïve rat.
compound,measurement,setting,value
CN(C)CCC=C1c2ccccc2CCc2ccccc21 [Amitriptyline],neuropathic rats performance in the beam walking task,CCI rats [1]; amitriptyline 2 mg/kg (FIG. 2C),did not improve
same,neuropathic rats performance in the beam walking task,CCI rats [1]; amitriptyline 20 mg/kg (data not shown),did not improve
same,efficacy on reversing beam walking impairments,CCI rats [1],does not
CN1C(=O)CN=C(c2ccccc2)c2cc(Cl)ccc21 [Diazepam],pain-related anxiety-like behaviour of CCI rats (entries in centre),"CCI rats [2]; diazepam 1 mg/kg IP, 30 minutes before the test (FIG. 5A)",did not
same,pain-related anxiety-like behaviour of CCI rats (entries in centre),"CCI rats [2]; diazepam 3 mg/kg (higher dose, data not shown)",did not
same,reversal of pain-related anxiety-like behaviour of CCI rats,CCI rats [2],does not reverse
CN1CC[C@]23c4c5ccc(O)c4O[C@H]2[C@@H](O)C=C[C@H]3[C@H]1C5 [Morphine],rats performance in the beam walking test,CCI rats [1]; morphine 1 mg/kg s.c. (lower dose),not statistically different from the control value
same,number of foot slips,"CCI rats [1]; morphine 3 mg/kg s.c. (higher dose), 30 minutes post dosing, vs 6±1 baseline, p<0.05",3±1
same,number of foot slips,"CCI rats [1]; morphine 3 mg/kg s.c. (higher dose), 1 hour post dosing, vs 5±1 baseline, p<0.05",2±1
same,efficacy on reversing beam walking impairments,CCI rats [1],show efficacy
same,rota rod performance of neuropathic rats,CCI rats [3],did not improve; also recorded: did not showed improvement
CC(C)C[C@H](CN)CC(=O)O [Pregabalin],QoL deficit of fibromyalgia patients,fibromyalgia patients,showed efficacy
COc1cccc(C2(O)CCCCC2CN(C)C)c1 (stereo not shown) [Tramadol],efficacy on reversing beam walking impairments,CCI rats [1],show efficacy
same,performance of rats in the beam walking test,CCI rats [1]; tramadol 30 mg/kg p.o.,not significantly different from CCI controls
same,number of foot slips,"CCI rats [1]; tramadol 100 mg/kg p.o. (higher dose), 1 hour post drug administration, vs 6±1 CCI vehicle-treated group, p<0.01",1±1
same,ability of CCI rats to cross the beam,CCI rats [1]; tramadol 30-100 mg/kg p.o.,dose dependently improves
same,reversal of pain-related anxiety-like behaviour of CCI rats,CCI rats [2],does not reverse
same,pain-related anxiety-like behaviour of CCI rats (entries in centre),"CCI rats [2]; tramadol 30 mg/kg PO, 30 minutes before the test (FIG. 5A)",did not
same,pain-related anxiety-like behaviour of CCI rats (entries in centre),"CCI rats [2]; tramadol 100 mg/kg (higher dose, data not shown)",did not
same,rota rod performance of neuropathic rats,CCI rats [3],did not improve; also recorded: did not showed improvement
same,cognitive dysfunction (memory/attention deficit) of neuropathic rats,CCI rats [4],reversed
same,discrimination index compared to vehicle-treated CCI rats,CCI rats [4]; P<0.01,significant increase
NCC1(CC(=O)O)CCCCC1 [gabapentin],QoL of patients,[5],demonstrated an improvement
same,number of entries in the centre of the open field compared to CCI vehicle-treated group,CCI rats [2]; gabapentin 30 mg/kg p.o.,increased
same,anxiety-like behaviour of injured rats,CCI rats [2]; gabapentin 100 mg/kg p.o.,completely reversed
same,number of entries in the centre of the open field,"CCI rats [2]; gabapentin 100 mg/kg p.o., 1 hour before the test, vs 14±2 naïve vehicle-treated group, NS",12±2
same,exploratory activity of neuropathic rats,CCI rats [2]; gabapentin 30-100 mg/kg p.o.,improved
same,reversal of pain-related anxiety-like behaviour of CCI rats,CCI rats [2],does
Clc1cccc(N2CCNCC2)c1 [mCPP],exploratory activity (number of entries),CD naïve rat; mCPP 1-3 mg/kg i.p.,dose-dependent decrease
same,number of entries in the centre of the arena,"CD naïve rat; mCPP higher dose (3 mg/kg) i.p., vs 13±3 vehicle-treated",5±2
same,rats that explored the centre less than 6 times,"CD naïve rat; mCPP, compared to 16% in the control group",Seventy-five
